The results in this text go back to US12624042B2, “Compound for targeted degradation of BTK and anti-tumour use thereof” (SHANGHAI MEIZER PHARMACEUTICALS CO., LTD., priority 2020, dated 2026).

Data set [1] in a line: Caco-2 membrane permeability and efflux test. The format is in vitro ADME. Conditions: human; for Papp A→B at 90 min: Caco-2, A-B; for Papp A→B at 90 min / Papp B→A at 90 min: Caco-2 monolayer, 37° C.; for Papp B→A at 90 min: Caco-2, B-A; for efflux ratio at 90 min: Caco-2, read-out: Papp(B-A)/Papp(A-B). The method, then: • 1) Caco-2 cells in the logarithmic growth phase were taken, digested and centrifuged and the cell concentration was adjusted to 4×10^5 cells/mL with MEM complete medium. • 2) 0.5 mL of cell suspension was added to the apical side (AP side) and 1.5 mL MEM cell complete medium was added to the basal side (BL side) of the Transwell plate, respectively. • 3) Culture in a cell constant temperature incubator, change the culture medium every two days, and change the medium every day after one week of culture. • 4) After about 21 days, the resistance value of the formed continuous monolayer film is greater than 100 Ω·cm^2, and the transport experiment is carried out within 3-5 days. • 5) The test compound solution was added to the AP side as the donor solution (Donor), and 1.5 mL of the receiver solution (Receiver) was added to the basal side (BL side). After the culture plate was placed in an incubator at 37° C. for 90 minutes, the AP side was separated from the BL side to terminate the reaction. • 6) Donor or Receiver samples were diluted with 0.4% DMSO in HBSS, and then mixed with acetonitrile. The LC conditions were as follows: mobile phase A: H2O—0.025% FA-1 mM NH4OAC, B: MeOH-0.025% FA-1 mM NH4OAC. Column: ACQUITY UPLC BEH_C18 ([…], 1.7 μm). Flow rate 0.60 mL/min. Gradient: 0.2 min 2% B, 0.6 min 98% B, 1.3 min 98% B, 1.31 min 2% B, 1.8 min stop. • 7) Calculation formula: Papp=(VA/(area×time))×([drug]receiver/([drug]donor)×dilution factor)
where VA is the volume in the receiving chamber, area is the surface area of the membrane, and time is the total transport time in seconds.
Drug molecules cross the single cell layer or via the cell gap from the apical side (AP side) to the basolateral side (BL side) of the Caco-2 monolayer are A to B, and vice versa are B to A. The efflux ratio: Papp(B−A)/Papp(A−B).

The next data set addresses T1, BTK protein (Homo sapiens, UniProt Q06187).
T1 construct: endogenous in cells; host or cells: Jeko-1
Briefly: Western blot assay for degradation of BTK protein in Jeko-1 cells. The format is cell-based. The conditions noted are these: 24 hours of drug treatment, GAPDH internal reference. Here is the method: The Jeko-1 cell line was cultured in RPMI-1640 medium containing 20% fetal bovine serum in an incubator at 37° C., 5% CO2, and saturated humidity. After the cells grew to the logarithmic growth phase, 5×10^6 cells per well were seeded in a 6-well culture plate, and a DMSO control group and a compound test group were set.
(§1) After 24 hours of drug treatment, the cells were collected, added pre-cooled cell lysate, and lysed on ice for 45 min. After the cells were completely lysed, they were centrifuged, and the supernatant was taken and stored in an ice bath. The protein concentration was determined by Bradford protein concentration assay kit (detergent compatible type), and protein samples were prepared. After the proteins were separated by SDS-PAGE gel electrophoresis, they were transferred to PVDF membranes by wet method and blocked with 5% BSA solution at room temperature for 1 h. Diluted rabbit anti-human BTK and GAPDH were added according to the experimental requirements, and incubated overnight at 4° C. After washing the membrane with TBST, horseradish peroxidase-labeled goat anti-rabbit IgG secondary antibody dilution was added and incubated at room temperature for 1 h. After washing the membrane with TBST, the ECL luminescent solution was added in the gel imager for development and imaging. […]

In the next data set the target is T2, BTK-C481S mutant protein (Homo sapiens, UniProt Q06187, C481S).
T2 construct: The TMD8 (BTK-C481S) mutant cell line was cultured in RPMI-1640 medium; endogenous in cells; host or cells: TMD8 (BTK-C481S) mutant cell line
T2 sequence (Q06187 whole entry C481S): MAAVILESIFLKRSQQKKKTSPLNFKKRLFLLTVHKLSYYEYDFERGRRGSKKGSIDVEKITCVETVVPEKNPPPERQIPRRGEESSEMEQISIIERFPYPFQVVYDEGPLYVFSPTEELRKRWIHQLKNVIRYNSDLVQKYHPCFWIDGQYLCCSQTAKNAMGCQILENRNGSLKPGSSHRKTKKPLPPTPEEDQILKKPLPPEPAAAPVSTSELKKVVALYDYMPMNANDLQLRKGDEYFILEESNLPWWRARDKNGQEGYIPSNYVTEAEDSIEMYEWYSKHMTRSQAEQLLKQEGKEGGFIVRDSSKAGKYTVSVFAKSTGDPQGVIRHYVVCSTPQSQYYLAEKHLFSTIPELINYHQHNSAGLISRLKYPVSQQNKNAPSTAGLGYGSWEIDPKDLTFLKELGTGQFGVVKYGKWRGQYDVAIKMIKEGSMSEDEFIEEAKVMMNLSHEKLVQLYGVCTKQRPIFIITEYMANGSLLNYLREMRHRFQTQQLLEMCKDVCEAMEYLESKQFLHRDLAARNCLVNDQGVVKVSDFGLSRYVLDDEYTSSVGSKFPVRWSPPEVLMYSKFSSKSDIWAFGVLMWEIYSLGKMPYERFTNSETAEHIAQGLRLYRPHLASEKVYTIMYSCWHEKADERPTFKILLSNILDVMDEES
Briefly: Western blot assay for degradation of BTK-C481S mutant protein in TMD8 (BTK-C481S) cells. The format is cell-based. The conditions noted are these: 24 hours of drug treatment, GAPDH internal reference. The method, then: The TMD8 (BTK-C481S) mutant cell line was cultured in RPMI-1640 medium containing 20% fetal bovine serum in an incubator at 37° C., 5% CO2, and saturated humidity. After the cells grew to the logarithmic growth phase, 5×10^6 cells per well were seeded in a 6-well culture plate, and a DMSO control group and a compound test group were set.
as §1
For orientation: In western blotting, separated proteins are transferred to a membrane and probed.

In data set [2] the test system is TMD8 (BTK-C481S) mutant cells. As to the kind of experiment: Proliferation inhibition of TMD8 (BTK-C481S) mutant cells (CCK-8). Conditions: Homo sapiens. The format is cell-based. Here is the method:
Cell plating: TMD8 (BTK-C481S) mutant cells in the logarithmic growth phase were taken, centrifuged, and an appropriate amount of complete medium was added to obtain a single-cell suspension. Cell counting was carried out with a hemocytometer, and a cell suspension of 1.5×10^5 cells/mL was prepared. 100 μL of cell suspension per well was inoculated in a 96-well culture plate, and cultured in a CO2 cell incubator for 24 hours.
The plates were shaken well, placed in a CO2 cell incubator, and continued to incubate for 72h.
CCK-8 detection: 72 hours after administration, 10% CCK-8 solution was added to each well. The plates were placed in a CO2 cell incubator, and incubated for 1-4 hours. The absorbance of each well was measured at 450 nm using a microplate reader.

The test system of a further data set is OCI-LY10 tumor. As to the kind of experiment: Anti-tumor effect in mouse OCI-LY10 tumor model. The format is in vivo. The conditions noted are these: SCID mice, OCI-LY10 subcutaneous, oral 100 mg/kg, twice a day, 14 days; rate=[1−(Day14−Day0)/Day0]*100%. Here is the method: OCI-LY10 cells were cultured in RPMI-1640 medium containing 10% fetal bovine serum (FBS). Cells were cultured at 37° C. in a 5% CO2 incubator.
Cell inoculation method to establish tumor SCID mouse subcutaneous transplantation model: tumor cells in logarithmic growth phase were collected, counted and resuspended in RPMI-1640 medium. Matrigel was added at 1:1, and the concentration of cell suspension was adjusted to 4×10^7 cells/ml. Inoculate tumor cells subcutaneously on the right back of SCID mice with a 1 ml syringe, 4×10^6 cells/0.1 ml/mouse
When the average volume of animal tumors is about 140 mm^3, animals with too large tumor, too small tumor, or have irregular tumor shapes were eliminated. The tumor-bearing mice with tumor volumes ranging from 101.34 to 209.86 mm 3 were selected, and were divided into groups by random block method, respectively as model group, compound group (oral 100 mg/kg, twice a day), 7 mice in each group. The day of grouping was Day 0, and administration was started according to the body weight of the animals.
After 14 days of administration, the tumor volume was measured, and the tumor inhibition rate was calculated, and the calculation formula was as follows: Tumor inhibition rate=[1−(Day14 tumor volume−Day0 administration tumor volume)/Day0 administration tumor volume]*100%

The mark [3] stands for this setting: Sample-01, read-out: Papp Sample-01.
Setting [4] is: Sample-02, read-out: Papp Sample-02.
Where [5] appears, read: mean of two samples, read-out: Papp Mean.
[6] abbreviates: TMD8 (BTK-C481S) mutant cells, 72h, CCK-8, read-out: IC50.

Structures are written as SMILES. Like-named read-outs stand apart in the source and are kept apart here.

T1 sequence (Q06187 whole entry): as the sequence (Q06187 whole entry C481S) above, with S481C counted along it

For the molecule `Nc1ncnc2c1c(-c1ccc(Oc3ccccc3)cc1)nn2C1CCN(CCCCCOCCOc2ccc3c(c2)CN(C2CCC(=O)NC2=O)C3=O)CC1` (centres unmarked) [Compound 1], the Papp A→B at 90 min in data set [1] (setting [3]) was 5.55 ×10⁻⁶ cm/s; in data set [1] (setting [4]), 5.16 ×10⁻⁶ cm/s; in data set [1] (setting [5]), 5.35 ×10⁻⁶ cm/s. Further, the Papp B→A at 90 min worked out at 7.18 ×10⁻⁶ cm/s in data set [1] (setting [3]), 6.99 ×10⁻⁶ cm/s in data set [1] (setting [4]) and 7.09 ×10⁻⁶ cm/s in data set [1] (setting [5]). The efflux ratio at 90 min in data set [1] was 1.32. Moreover, the DC50 (in general, the concentration at which degradation of the target reaches its halfway point) stood at 2.3 nM on BTK protein and 9.9 nM on BTK-C481S mutant protein. The concentration for half-maximal inhibition (IC50) (in general, the point on the concentration scale where inhibition reaches its midpoint) in data set [2] (setting [6]) is 7.1 nM. The Tumor inhibition rate in the data set on OCI-LY10 tumor was determined as 175%.

As to `Nc1ncnc2c1c(-c1ccc(Oc3ccccc3)cc1)nn2C1CCN(CCOCCCCCOc2ccc3c(c2)CN(C2CCC(=O)NC2=O)C3=O)CC1` (centres unmarked) [Compound 2], the Papp A→B at 90 min was 2.37 ×10⁻⁶ cm/s in data set [1] (setting [3]), 2.26 ×10⁻⁶ cm/s in data set [1] (setting [4]) and 2.32 ×10⁻⁶ cm/s in data set [1] (setting [5]). Further, the Papp B→A at 90 min in data set [1] (setting [3]) was found to be 2.73 ×10⁻⁶ cm/s; in data set [1] (setting [4]), 2.75 ×10⁻⁶ cm/s; in data set [1] (setting [5]), 2.74 ×10⁻⁶ cm/s. For the same molecule, the efflux ratio at 90 min in data set [1] was found to be 1.18. Further, the DC50 at BTK protein came to 1.5 nM; at BTK-C481S mutant protein, 3.1 nM. In data set [2] (setting [6]), the IC50 was found to be 17.7 nM. Moreover, the Tumor inhibition rate in the data set with OCI-LY10 tumor is 189%.

On to `Nc1ncnc2c1c(-c1ccc(Oc3ccccc3)cc1)nn2C1CCN(CCOCCOCCNc2ccc3c(c2)CN(C2CCC(=O)NC2=O)C3=O)CC1` (centres unmarked) [Control compound 1], for which the Papp A→B at 90 min in data set [1] (setting [3]) came out at 1.07 ×10⁻⁶ cm/s; in data set [1] (setting [4]), 1.04 ×10⁻⁶ cm/s; in data set [1] (setting [5]), 1.05 ×10⁻⁶ cm/s. Moreover, the Papp B→A at 90 min in data set [1] (setting [3]) turned out to be 30.2 ×10⁻⁶ cm/s; in data set [1] (setting [4]), 39.4 ×10⁻⁶ cm/s; in data set [1] (setting [5]) it was 34.8 ×10⁻⁶ cm/s. Moreover, the efflux ratio at 90 min in data set [1] was 33.

With `Nc1ncnc2c1c(-c1ccc(Oc3ccccc3)cc1)nn2C1CCCN(CCOCCOCCOCCOCCNc2cccc3c2C(=O)N(C2CCC(=O)NC2=O)C3=O)C1` (centres unmarked) [Control compound 2], the Papp A→B at 90 min in data set [1] (setting [3]) was 1.02 ×10⁻⁶ cm/s; in data set [1] (setting [4]), 1 ×10⁻⁶ cm/s; in data set [1] (setting [5]), 1.01 ×10⁻⁶ cm/s. The Papp B→A at 90 min in data set [1] (setting [3]) was determined as 18.1 ×10⁻⁶ cm/s; in data set [1] (setting [4]), 18.6 ×10⁻⁶ cm/s; in data set [1] (setting [5]), 18.4 ×10⁻⁶ cm/s. For the same molecule, the efflux ratio at 90 min in data set [1] is 18.1.

Take `Nc1ncnc2c1c(-c1ccc(Oc3ccccc3)cc1)nn2C1CCN(CCOCCOCCNc2ccc3c(c2)C(=O)N(C2CCC(=O)NC2=O)C3=O)CC1` (centres unmarked) [Control compound 3]: the Papp A→B at 90 min in data set [1] (setting [3]) worked out at 2.14 ×10⁻⁶ cm/s; in data set [1] (setting [4]) it was 2.16 ×10⁻⁶ cm/s; in data set [1] (setting [5]), 2.15 ×10⁻⁶ cm/s. For the same molecule, the results for the Papp B→A at 90 min in data set [1] (setting [3]), in data set [1] (setting [4]) and in data set [1] (setting [5]) were 33.5 ×10⁻⁶ cm/s, 34.8 ×10⁻⁶ cm/s and 34.1 ×10⁻⁶ cm/s, respectively. The efflux ratio at 90 min in data set [1] stood at 15.9.

Take `C=CC(=O)N1CCC[C@@H](n2nc(-c3ccc(Oc4ccccc4)cc3)c3c(N)ncnc32)C1` [Ibrutinib]: the IC50 in data set [2] (TMD8, 72 h) came to 125 nM.
